Source: patent publication US4118561A, “7-(Substituted)-7H-pyrrolo[3,2-f]quinazoline-1,3-diamines” (priority 1977, dated 1978)
In brackets after ≈: the same amount, converted by molar mass. Like-named read-outs stand apart in the source and are kept apart here.

Key:
E. coli 9637 = assay: In vitro antibacterial activity (MIC), E. coli 9637; settings: Escherichia coli, 9637, 18 h
N. catarrhalis 8193 = assay: In vitro antibacterial activity (MIC), N. catarrhalis 8193; settings: 18 h
S. aureus Smith = assay: In vitro antibacterial activity (MIC), S. aureus Smith; settings: Staphylococcus aureus, 18 h
S. aureus 53-180 = assay: In vitro antibacterial activity (MIC), S. aureus 53-180; settings: Staphylococcus aureus, 53180, 18 h
S. paratyphi 11737 = assay: In vitro antibacterial activity (MIC), S. paratyphi 11737; assay type: cell-based; settings: Salmonella enterica, 18 h
P. vulgaris 6896 = assay: In vitro antibacterial activity (MIC), P. vulgaris 6896; settings: Proteus vulgaris, 6896, 18 h
[1] = test system: lymphocytic leukemia P-388; assay: Activity in mice against lymphocytic leukemia P-388; assay type: in vivo; settings: Mus musculus, P388, ip, read-out: T/C; for response vs control in vivo at 10 mg/kg: mice, I.P.
[2] = Antimalarial blood schizonticidal test in mice; assay type: in vivo, Plasmodium berghei (infected ICR/HA Swiss mice); design: ΔMST (increase in mean survival time): unit: days; settings: mouse, in vivo, sc, single dose, read-out: Highest Non-Lethal Dose
Summary of the method: (§1)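 Single s.c. doses (peanut oil vehicle, graded levels) given 72 h after i.p. inoculation of young Swiss mice with P. berghei KBG 173 blood (4 × 10^7 parasitized cells). Activity judged by cures (alive at 60 days) or significant mean survival gain over untreated controls, without drug-related deaths.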

[3] = test system: Plasmodium berghei KBG 173; assay: Antimalarial blood schizonticidal test in mice; assay type: in vivo, Plasmodium berghei (infected ICR/HA Swiss mice); design: ΔMST (increase in mean survival time): unit: days; settings: s.c.; for ED100 / minimal effective dose: Plasmodium berghei, sc, single dose; for ED100: read-out: Lowest Dose Curing All Mice; for minimal effective dose: read-out: Min. Curing Dose; for Cure/Treat at Min. Curing Dose: at the Min. Curing Dose
Summary of the method: as §1

K. pneumoniae 10031 = assay: In vitro antibacterial activity (MIC), K. pneumoniae 10031; settings: Klebsiella pneumoniae, 10031, 18 h
Proteus mirabilis 190 = assay: In vivo antibacterial synergism (mouse), Proteus mirabilis 190; design: species or system Proteus mirabilis (infected mice, CD-1); settings: mice, p.o.; for ED50: Proteus mirabilis, 190, po, 336 h; for PD50 SM/Cpd. (compound part): 0 hours, 20160 min
Protocol: (§2) The test agents are weighed, suspended in 0.5% aqueous carboxymethyl cellulose, homogenized (glass tissue grinder) and diluted according to the design of the experiment. Mice (male, 18±1 g., CD-1 strain) are pre-weighed, pooled, infected at random intraperitoneally with a 0.5 ml. standardized suspension (LD95 ±5%) of the bacterial organism in 5% gastric mucin and treated at random with single doses of the test agents either at the time of infection or six hours after infecting. The treated groups consist of ten mice per dosage level. Deaths are recorded daily for 14 days and the PD50 (mice are treated at time of infection) and CD50 (mice are treated six hours after infecting) values are calculated by the method of Reed and Muench [Amer. J. Hyg., 27, 493 (1938)].

bacterial infections = assay: Synergism with sulfamethoxazole against bacterial infections in mice, oral; assay type: in vivo
Protocol: The invention also provides compounds which will potentiate the antibacterial effects of sulfa drugs.
as §2

Escherichia coli W-102 = assay: In vivo antibacterial synergism (mouse), Escherichia coli W-102; design: species or system Escherichia coli (infected mice, CD-1); settings: Escherichia coli, W102, po, 336 h; mice, p.o., treated 0 hours after infecting; read-out: PD50 (agent alone)
Protocol: as §2

Proteus vulgaris 347 = assay: In vivo antibacterial synergism (mouse), Proteus vulgaris 347; design: species or system Proteus vulgaris (infected mice, CD-1); settings: Proteus vulgaris, 347, po, 336 h, mice, p.o.
Protocol: as §2

Proteus mirabilis 3 = assay: In vivo antibacterial synergism (mouse), Proteus mirabilis 3; design: species or system Proteus mirabilis (infected mice, CD-1); settings: Proteus mirabilis, 3, po, 336 h; mice, p.o., treated 0 hours after infecting; read-out: PD50 (agent alone)
Protocol: as §2

[4] = 336 h, alive on day 14 considered cured, no 60-day data
[5] = infected mice, highest dose with no deaths for any reason
[6] = treated 0 hours after infecting, read-out: PD50 (agent alone)
[7] = treated 6 hours after infecting, read-out: CD50 (agent alone)

Compound | MIC (E. coli 9637) | MIC (N. catarrhalis 8193) | MIC (S. aureus Smith) | MIC (S. aureus 53-180) | MIC (S. paratyphi 11737) | MIC (P. vulgaris 6896) | response vs control in vivo at 10 mg/kg [1] | MIC (K. pneumoniae 10031) | MTD [2, 5] | ED100 ([3]; 1440 h, 60-day survivors) | minimal effective dose ([3]; 1440 h, 60-day survivors) | Cure/Treat at Min. Curing Dose ([3]; 60-day survivors) | also measured
Nc1nc(N)c2c(ccc3c2ccn3Cc2ccsc2)n1 [Example 41] | 0.244 µg/mL (≈ 0.826 µM) | 0.0152 µg/mL (≈ 0.0515 µM) | 0.976 µg/mL (≈ 3.3 µM) | 0.976 µg/mL (≈ 3.3 µM) | 0.976 µg/mL (≈ 3.3 µM) | 1.95 µg/mL (≈ 6.6 µM) | 147% | 0.061 µg/mL (≈ 0.207 µM) | – | – | – | – | MTD ([2]; alive on day 14 considered cured, no 60-day data): 320 mg/kg; ED100 [3, 4]: 160 mg/kg; minimal effective dose [3, 4]: 20 mg/kg; Cure/Treat at Min. Curing Dose ([3]; alive on day 14 considered cured): 3/5
Nc1nc(N)c2c(ccc3c2ccn3Cc2ccccn2)n1 [Example 43] | 0.488 µg/mL (≈ 1.68 µM) | < 0.0009 µg/mL | 0.976 µg/mL (≈ 3.36 µM) | 0.488 µg/mL (≈ 1.68 µM) | 0.244 µg/mL (≈ 0.84 µM) | 0.244 µg/mL (≈ 0.84 µM) | – | 0.061 µg/mL (≈ 0.21 µM) | 80 mg/kg | 80 mg/kg | 20 mg/kg | 2/5 | response vs control in vivo at 20 mg/kg [1]: 146%; ΔMST (increase in mean survival time) ([3]; dose 20 mg. per kg.): 11.6
Nc1nc(N)c2c(ccc3c2ccn3Cc2ccc3ccccc3n2)n1 [Example 50] | 7.81 µg/mL (≈ 22.9 µM) | 0.0038 µg/mL (≈ 0.0112 µM) | 0.976 µg/mL (≈ 2.87 µM) | 0.488 µg/mL (≈ 1.43 µM) | 7.81 µg/mL (≈ 22.9 µM) | 7.81 µg/mL (≈ 22.9 µM) | 145% | 0.122 µg/mL (≈ 0.358 µM) | 160 mg/kg | 5 mg/kg | 1.25 mg/kg | 2/5 | ΔMST (increase in mean survival time) ([3]; dose 1.25 mg. per kg.): 6.9
Nc1cccc(Cn2ccc3c4c(N)nc(N)nc4ccc32)c1 [Example 62, 7-[(3-Aminophenyl)methyl]-7H-pyrrolo[3,2-f]quinazoline-1,3-diamine] | 0.244 µg/mL (≈ 0.802 µM) | 0.061 µg/mL (≈ 0.2 µM) | 0.488 µg/mL (≈ 1.6 µM) | 0.244 µg/mL (≈ 0.802 µM) | 0.976 µg/mL (≈ 3.21 µM) | 1.95 µg/mL (≈ 6.41 µM) | 165% | 0.122 µg/mL (≈ 0.401 µM) | 80 mg/kg | 20 mg/kg | 5 mg/kg | 3/5 | ΔMST (increase in mean survival time) ([3]; dose 1.25 mg. per kg.): 7.8
Nc1nc(N)c2c(ccc3c2ccn3-c2nccs2)n1 [Example 81, 7-(2-thiazolyl)-7H-pyrrolo[3,2-f]quinazoline-1,3-diamine] | 0.976 µg/mL (≈ 3.46 µM) | 0.0152 µg/mL (≈ 0.0538 µM) | 0.488 µg/mL (≈ 1.73 µM) | 0.244 µg/mL (≈ 0.864 µM) | 1.95 µg/mL (≈ 6.91 µM) | 3.9 µg/mL (≈ 13.8 µM) | – | 0.244 µg/mL (≈ 0.864 µM) | – | – | 640 mg/kg | 4/5 | ΔMST (increase in mean survival time) ([3]; dose 160 mg. per kg.): 8.3; ED50 (Proteus mirabilis 190; [6]): 22.3 mg/kg; PD50 SM/Cpd. (compound part) (Proteus mirabilis 190; with SM 1.56 mg. per kg.): > 12.5 mg. per kg.; PD50 SM/Cpd. (compound part) (Proteus mirabilis 190; with SM 3.11 mg. per kg.): 6.25 mg. per kg.; synergistic effect with sulfamethoxazole (bacterial infections): synergistic effect
Cc1cc2c3c(N)nc(N)nc3ccc2n1Cc1ccccc1 [Example 100, 8-methyl-7-(phenylmethyl)-7H-pyrrolo[3,2-f]-quinazoline-1,3-diamine] | 0.488 µg/mL (≈ 1.61 µM) | 0.122 µg/mL (≈ 0.402 µM) | 1.95 µg/mL (≈ 6.43 µM) | 0.976 µg/mL (≈ 3.22 µM) | 3.9 µg/mL (≈ 12.9 µM) | 15.6 µg/mL (≈ 51.4 µM) | – | 0.244 µg/mL (≈ 0.804 µM) | – | – | – | – | ED50 (Proteus mirabilis 190; [6]): 36.6 mg/kg; PD50 SM/Cpd. (compound part) (Proteus mirabilis 190; with SM 1.56 mg. per kg.): 3.11 mg. per kg.; synergistic effect with sulfamethoxazole (bacterial infections): synergistic effect
Cc1cc(NS(=O)(=O)c2ccc(N)cc2)no1 [SM, sulfomethoxazole, reference compound] | – | – | – | – | – | – | – | – | – | – | – | – | ED50 (Escherichia coli W-102): 95 mg/kg; ED50 (Proteus vulgaris 347; [6]): 43.2 mg/kg; ED50 (Proteus vulgaris 347; [7]): 60 mg/kg; ED50 (Proteus mirabilis 3): 9.9 mg/kg; ED50 (Proteus mirabilis 190; [7]): 14 mg/kg
